Earlier results as cited in US8735422B2, “Cationic pharmaceutically active ingredient containing composition, and methods for manufacturing and using” (Skinvisible Pharmaceuticals, Inc., priority 2009, dated 2014).
Like-named read-outs stand apart in the source and are kept apart here.

Columns and labels:
[1] = in vivo
[2] = Table 4, value used for the calculation

Row | pK1 (Table 1) | Molecule | further results
1 | 4.76 | CC(=O)O [Acetic Acid] | –
2 | 4.5 | O=C(O)CCCCCCCCCCC(=O)O [Dodecandioic] | pK2 (Table 1): 4.5
3 | – | CC(C)Cn1cnc2c(N)nc3ccccc3c21 [Imiquimod, reference compound] | pK [2]: 4.49
4 | 5.3 | CCCCCCCCCCCC(=O)O [Lauric Acid] | pK: 5.3; pK [2]: 5.30
5 | 7.0 | CCCCCCCCCCCCCCCCCC(=O)O [Stearic Acid] | –
6 | – | Poly(vinylpyrrolidone/1-eicosene) [PVPE] | dermal toxicity [1]: no demonstrable dermal toxicity
7 | – | Poly(vinylpyrrolidone/1-hexadecene) [PVPH] | dermal toxicity [1]: no demonstrable dermal toxicity

Row | Molecule | pK1 (Table 1) | further results
8 | O=C(O)c1ccccc1 [Benzoic Acid] | 4.21 | –
9 | O=C(O)[C@H](O)[C@@H](O)[C@H](O)[C@H](O)CO [Gluconic Acid] | 3.86 | –
